# Reference: patent US11433090B2, “mTOR-inhibitor-containing medicine for treating or preventing ophthalmic symptoms, disorders, or diseases, and application thereof” (The Doshisha, priority 2017, dated 2022)
# What was measured:
# Assay type in all cases: cell-based, human
# [1] = tested on: mTOR; assay: mTOR expression at protein level in iFECD (western blot); settings: 3 pmol mTOR siRNA, FIG. 6
# Description: (§1) The medium was removed from a culture dish in which iFECDs were being cultured, and the cells were supplemented with 1×PBS (−) that was preheated to 37° C., and were washed. This was repeated twice. The cells were supplemented again with 1×PBS (−) and incubated for 3 minutes at 37° C. (5% CO2). After removing the PBS (−), the cells were supplemented with 0.05% Trypsin-EDTA (Nacalai Tesque, 32778-34) and incubated for 5 minutes at 37° C. (5% CO2). The cells were then suspended in a medium, and collected by centrifugation at 1500 rpm for 3 minutes. DMEM (Nacalai Tesque, 08456-36)+10% FBS (Biowest, S1820-500)+1% P/S (Nacalai Tesque, 26252-94) was used as the medium.
# (§2) iFECDs were seeded on a 12-well plate at a ratio of 3×10^4 cells per well and cultured for 24 hours at 37° C. (5% CO2) (medium: DMEM+10% FBS+1% P/S). After 24 hours, the medium was removed. Lipofectamine (invitrogen, 92008) and 3 pmol of mTOR siRNA (Ambion, AS026M0L) were added to culture the cells for 24 hours (medium: OptiMEM-I (invitrogen, 31985-088)). The mTOR siRNA that was used has a sense strand set forth in SEQ ID NO: 1 and an antisense strand set forth in SEQ ID NO: 2. […]
# 5 μg of the extracted protein was separated by SDS-PAGE and transferred onto a nitrocellulose membrane. […] The detected band strength was analyzed with a lumino image analyzer LAS-4000 mini (Fuji Film) and ImageQuant™ software (GE Healthcare).
# [2] = tested on: mTOR; assay: mTOR expression at RNA level in iFECD (PCR, agarose gel electrophoresis); settings: 3 pmol mTOR siRNA, FIG. 6
# Description: as §1
# as §2, with “2. After 24 hours, the medium was removed to culture the cells for 72 hours at 37° C. (5% CO2) (medium: DMEM+10% FBS+1% P/S). After 72 hours, the medium was removed.” for “2.”
# [3] = tested on: iFECD; assay: Cell damage induced by TGF-β2 in iFECD, phase contrast microscopy; settings: 3 pmol mTOR siRNA with Lipofectamine, then TGF-β2 10 ng/ml 24 h, FIG. 7
# Description: as §1
# iFECDs were seeded on a 12-well plate at a ratio of 1×10^5 cells per well and cultured for 24 hours at 37° C. (5% CO2) (DMEM+10% FBS+1% P/S was used as the medium). After 24 hours, the medium was removed. Rapamycin was added to culture the cells for 24 hours. (DMEM+2% FBS+1% P/S was used as the medium). After 24 hours, the medium was removed. A medium containing 10 ng/ml of Recombinant Human TGF-β2 (Wako, 200-19911) and rapamycin was added to culture the cells for 24 hours. (DMEM+2% FBS+1% P/S was used as the medium). After 24 hours, the cell morphology and apoptosis were observed under a phase contrast microscope.
# iFECDs were seeded on a 12-well plate at a ratio of 3×10^4 cells per well and cultured for 24 hours at 37° C. […]
substance,measurement,setting,value
"mTOR siRNA: siRNA against mTOR gene (Ambion, AS026M0L); sense strand SEQ ID NO: 1, antisense strand SEQ ID NO: 2 (sense CAUUCGCAUUCAGUCCAUATT; antisense UAUGGACUGAAUGCGAAUGAT; chemistry not given here)","mTOR expression, protein level (western blot)",[1],suppression was found
same,"mTOR expression, RNA level (PCR)",[2],suppression was found
same,damage to corneal endothelial cells induced by Recombinant Human TGF-β2,[3],suppressed
